Patent US20150196638A1, “SYSTEM AND METHOD FOR USING ULTRASOUND-STIMULATED MICROBUBBLE EXPOSURES TO INDUCE CERAMIDE ACCUMULATION IN ENDOTHELIAL AND TUMOR CELLS” (priority 2012, published 2015)

Key:
asmase +/+ astrocytes = test: Clonogenic survival assay, asmase +/+ astrocytes; assay type: cell-based, mouse
Procedure: All cells were grown at 37 degrees Celsius with 5% CO2. Primary astrocytes (obtained from asmase +/+ and asmase −/− mouse brains, Sunnybrook Health Sciences Centre, Toronto, ON) were cultured in DMEM with 10% fetal bovine serum (FBS) and 5% Penicillin. HUVEC cells (Sunnybrook Health Sciences Centre, Toronto, ON, Canada) were grown in EBM-2 (Lonza, Walkersville, Md. USA) supplemented with 10 ml FBS, 0.2 ml Hydrocortisone, 2 ml hFGF-B, 0.5 ml VEGF, 0.5 ml R3-IGF-1, 0.5 ml ascorbic acid, 0.5 ml hEGF, 0.5 ml GA-1000 and 0.5 ml Heparin using EGM-2 singlequots kits. Breast and PC3 cells were grown in 1640-RPMI medium (Sigma-Aldrich Canada Inc., Oakville, ON, Canada), leukemia (AML, Ontario Cancer Institute, Toronto, ON), and KHT sarcoma cells (Sunnybrook Health Science Centre) were grown in α-MEM (Sigma-Aldrich Canada Inc., Oakville, ON), all with 10% FBS and 5% penicillin. In order to harvest adherent cells, confluent flasks were PBS washed, after which 0.05% trypsin EDTA (Gibco, Carlsbad, Calif. USA) was added for 5 minutes to detach cells. After trypsinization, cells were centrifuged at 440 g for 10 minutes and brought to a final cell concentration of 2×10̂6 cells/ml of medium with 1.5 ml aliquots used for each treatment (i.e., 3×10̂6 cells/sample). In all experiments cells were carefully handled to avoid clumping after typrinsization and this was verified by microscopy in advance of ultrasound treatments.
For ultrasound treatments, a pulse was generated by a 2.86 cm-diameter single element transducer (IL0509HP, 500 kHz center frequency, Valpey-Fisher Inc., Hopkinton, Mass., USA) connected to a micro-positioning system. The set-up also included a cylindrical chamber (10 mm diameter) for cell exposure. The chamber had mylar windows on both sides and a magnetic stirrer to mix cells and bubbles during ultrasound exposure in order to avoid standing wave effects.
In order to treat the cells, 50 μL of 45 seconds agitated vial-mix DEFINITY® microbubbles (Perflutren lipid microspheres, Lantheus Medical Imaging, Billerica, Mass. USA) and 1.5 ml of the 2×10̂6 cells/ml solution were added to the chamber (for a 3.3% v/v bubbles concentration). Insonification took place using a peak negative pressure of 570 kPa using a pulse sequence with a 9.6% duty cycle composed of a 16 cycle tone burst and a pulse repetition frequency of 3 kHz, for a total insonification time of 2,880 milliseconds over 30 seconds. The −6 dB beamwidth for this transducer was […] and the −3 dB beamwidth was 18 mm. Transducer characteristics were measured using a calibrated hydrophone in the absence and presence of the treatment set-up.
Sphingosine-1-Phosphate (S1P) (Biomol International L.P., Plymouth Meeting, Pa. USA) was used to counteract the mechanisms leading to ceramide-mediated apoptotic cell death. In order to treat cells, 1 μM S1P was added to asmase +/+ and asmase −/− culture media one hour before damage treatments with radiation or ultrasound, and was present during trypsinization, and for clonogenic survival assays in media. The rationale for this was that any activation of ceramide-dependent cell death by treatment may take many hours to manifest and should be inhibited long term. Treatment of cells with C2-Ceramide (Sigma-Aldrich) was carried out similarly.
Radiation treatments were carried out by exposing samples to X-ray ionizing radiation (Faxitron Cabinet X-ray, Faxitron X-Ray LLC, IL) at a dose rate of 200 cGy/minute. […]

HUVEC cells = test: Clonogenic survival assay, HUVEC; assay type: cell-based; conditions: 1 μM
Procedure: All cells were grown at 37 degrees Celsius with 5% CO2. Primary astrocytes (obtained from asmase +/+ and asmase −/− mouse brains, Sunnybrook Health Sciences Centre, Toronto, ON) were cultured in DMEM with 10% fetal bovine serum (FBS) and 5% Penicillin. HUVEC cells (Sunnybrook Health Sciences Centre, Toronto, ON, Canada) were grown in EBM-2 (Lonza, Walkersville, Md. USA) supplemented with 10 ml FBS, 0.2 ml Hydrocortisone, 2 ml hFGF-B, 0.5 ml VEGF, 0.5 ml R3-IGF-1, 0.5 ml ascorbic acid, 0.5 ml hEGF, 0.5 ml GA-1000 and 0.5 ml Heparin using EGM-2 singlequots kits. Breast and PC3 cells were grown in 1640-RPMI medium (Sigma-Aldrich Canada Inc., Oakville, ON, Canada), leukemia (AML, Ontario Cancer Institute, Toronto, ON), and KHT sarcoma cells (Sunnybrook Health Science Centre) were grown in α-MEM (Sigma-Aldrich Canada Inc., Oakville, ON), all with 10% FBS and 5% penicillin. […]
In order to treat the cells, 50 μL of 45 seconds agitated vial-mix DEFINITY® microbubbles (Perflutren lipid microspheres, Lantheus Medical Imaging, Billerica, Mass. USA) and 1.5 ml of the 2×10̂6 cells/ml solution were added to the chamber (for a 3.3% v/v bubbles concentration). […] Transducer characteristics were measured using a calibrated hydrophone in the absence and presence of the treatment set-up. […]

[1] = tested on: Human PC3 prostate cancer xenografts; test: ISEL / H&E cell death histology of PC3 xenograft tumors (Example 1); assay type: in vivo, mice
Procedure: Human PC3 prostate cancer (ATCC) xenografts were grown in the hind upper leg of SCID-17 mice (Charles River) by injecting 1.0×10̂6 RPMI-1640 media cultured cells subcutaneously (Wisent Biocentre), with 10% characterized serum (HyClone), and 100 U/mL of penicillin/streptomycin (Invitrogen). Tumors were grown to 7-8 mm diameter size before treatment. For treatments, ketamine and xylazine anesthetized mice were used. Vialmix device-prepared DEFINITY® (Lantheus Medical Imaging; N. Billerica, Mass.) microbubbles (perfluoropropane gas/liposome shell) were administered at doses of 3.6×10̂8 microbubbles (L, low dose) and 1.08×10̂9 microbubbles (H, high dose) in […] volumes of prepared bubbles, respectively. The final circulating concentrations were selected to be higher (100- and 300-fold, respectively) than the diagnostic dose used to ensure efficient interactions of the bubbles and microvascular walls.
Mice were immersed in a 37 degree Celsius water bath to permit ultrasound treatment and centered on the tumor. For ultrasound exposures, a focused central frequency 500-kHz transducer (IL0509HP; ValpeyFisher Inc.) with a 28.6-mm transducer element diameter was used. This was attached to a micropositioning system, and excited with sinusoidal wave generated by a waveform generator (AWG520; Tektronix), a pulse-receive power amplifier (RPR4000; Ritec Inc.), and a digital-acquisition system (Acquiris CC103, Agiulent Technologies NY). Tumors were exposed over 50 ms to a 16-cycle tone burst at 500-kHz and 3-kHz pulse repetition frequencies with a 10% duty cycle during the 50-ms window. Treatments were for 5 min, amounting to a 750-ms exposure over 5 min for all mouse treatments, with an average duty cycle of 0.25%. Specifically, at 500 kHz the pulse bandwidth of the 16-cycle tone burst was 0.032 ms. The pulse repetition period (3-KHz pulse repetition frequency) was 0.333,ms, which, over 50 ms, corresponded to 150 periods of 16-cycle tone burst or 4.8 ms (rounded to 5 ms). […] The ultrasound peak negative pressure was 570 kPa measured with a calibrated hydrophone. […]

[2] = tested on: ceramide in PC3 prostate tumors; test: In vivo ceramide immunohistochemistry staining; design: species or system mice; conditions: 4 μg IV; 2 or 8 Gy with high microbubble concentration
Text: (A) Quantification of ceramide immunohistochemistry staining of sections of PC3 prostate tumors treated with radiation and/or ultrasound-activated microbubbles. Labels indicate non (Nil), low (Low) and high concentration microbubble exposure (High) and radiation doses (0, 2 or 8 Gy). (B) Quantification of ceramide immunohistochemistry staining for experiments with S1P.
In order to test if ultrasound-stimulated microbubbles in combination with ultrasound could stimulate ceramide formation, experiments were carried out using an additional cohort of 75 animals, with five mice per group. Mice were treated as above with no microbubbles, low, and high bubble concentrations in the presence of ultrasound and combined with 0, 2, and 8 Gy radiation doses given in single fractions as above for nine cohorts of n=5 animals. In addition, 0, 2, and 8 Gy conditions with and without high-concentration microbubble exposure in the presence of ultrasound were carried out in the presence of S1P using modified protocols. This used six cohorts of n=5 mice.
For S1P treatments, 4 μg of S1P in 0.2 mL of PET (5% polyethylene glycol, 2.5% ethanol, and 0.8% Tween-80) was injected intravenously in mice 30 min prior to and 5 min after irradiation or after microbubble exposure with ultrasound and irradiation.

## CCCCCCCCCCCCC/C=C/[C@@H](O)[C@H](CO)NC(C)=O [C2-Ceramide]
Asmase +/+ astrocytes; 1 μM
  cell kill: no significant cell kill
Asmase +/+ astrocytes; ceramide alone as a control
  survival: 50±5%
HUVEC cells
  survival on ceramide exposure: did not survive

## CCCCCCCCCCCCC/C=C/[C@@H](O)[C@@H](N)COP(=O)(O)O [S1P, Sphingosine-1-Phosphate]
[1]; 4 μg IV 30 min before and 5 min after treatments, 0, 2, 8 Gy with or without high microbubbles
  effect on apoptotic cell death induced by microbubbles and radiation: diminishment of detected apoptotic cell death
[2]
  ceramide increases in the presence of S1P: increases were not apparent
Asmase +/+ astrocytes; 1 μM, cells treated with either radiation or ultrasound with microbubbles
  protective effect on survival: no protective effect
Asmase +/+ astrocytes; 1 μM, ultrasound and microbubbles prior to radiation
  protective effect on survival: protection was detected
Asmase +/+ astrocytes; S1P-treated, radiation
  radioresistance of wild-type astrocytes: conferred some radioresistance
HUVEC cells; radiation or ultrasound and microbubbles, p<0.01
  protection from apoptosis: significantly protected

## bFGF: basic fibroblast growth factor (Sigma), a known endothelial cell protector
[1]; 0.45 μg IV 1 hour before microbubbles (1% vol/vol) with ultrasound
  effect of pre-treatment on microbubble-induced cell death: diminished the cell death
[1]; 0.45 μg IV, P=0.24
  cell death, bFGF-treated animals with ultrasound-stimulated microbubbles versus untreated control: no difference
